Test results reported in patent US12338206B2, “Compounds and their uses as thyroid hormone receptor agonists” (Nanjing Ruijie Pharma Co., Ltd., priority 2020, dated 2025).
pEC50: −log10 of the molar value.

Tests used:
[1] = target: TRα LBD (Homo sapiens, UniProt P10827); assay: In vitro thyroid hormone receptor binding assay (TR-FRET coactivator assay), TRα LBD; settings: Biotin-SRC2-2, 1 hour at room temperature
Experimental: (§1) In Vitro Thyroid Hormone Receptor Binding Assay
(§2) The interaction between the compounds of present invention and Human Thyroid Receptor (TR) are evaluated by Time-Resolved Fluorescence Resonance Energy Transfer (TR-FRET) competition assay. FRET describes a radiation-free energy transfer between two chromophores: a donor fluorophore in its excited state can transfer energy to an acceptor fluorophore in close proximity (typically <10 nm). In contrast to standard FRET, TR-FRET unites time-resolved fluorescence (TRF) and the FRET principle. TRF use a long-lifetime lanthanide chelate as the donor species, while lanthanide chelates are unique in that their excited-state lifetime can be on the order of a millisecond or longer. Suitable neighbors for FRET are known in the art and can be obtained. The assay was adopted from the manual of LanthaScreen™ TR-FRET Thyroid Receptor beta Coactivator Assay kit from Invitrogen.
(§3) The assay is performed in following steps: first, prepare reaction buffer containing 50mMTris-HCl (pH7.4) with 100 mM NaCl, 1mMEDTA, 50mMKF, 1mMDTT, 1mMMgCl2, 10% glycerol, 0.01% NP-40, 0.1% BSA. Second, use the buffer to prepare the appropriate dilution series of the test and reference compounds. The3,3′,5-Triiodothyronine (T3) was used aspositive control agonist. Third, add 5 μl of 4× compoundserial dilution and 5 μl TRa LBD (4×, 4 nM) (or 5 μl TRβ LBD, 4×, 2 nM) into 384-well plate (784075, greiner). Then, add 10 μl of a solution consist of 400 nM Biotin-SRC2-2 (2×) and anti-GST Eu (1:200, 2×) and 50 nM anti-biotin-d2 (2×) in 1× reaction buffer to initiate the reaction. Centrifuge the plates at 1000 g for 1 min and then incubate 1 hour at room temperature protected from light. Finally, read the plate at wavelengths of 665 nm and 615nmonEnvision2104 plate reader.
(§4) A ratio (Ratio665 nm/615 nm−Ratiobackground) is calculated for each well. Percentage of activity, as well as EC50 was calculated. Effect-dose curve was plotted. Relative selectivity was calculated as the ratio of EC50TRα/EC50TRβ.

[2] = target: T1, TRβ LBD (Homo sapiens, UniProt P10828); assay: In vitro thyroid hormone receptor binding assay (TR-FRET coactivator assay), TRβ LBD; settings: for pEC50: TR-FRET, TRβ LBD, Biotin-SRC2-2, 1 hour at room temperature; for Relative Selectivity TR-α/TR-β: ratio of EC50 TRα/EC50 TRβ, TR-FRET assay
T1 construct: (or 5 μl TRβ LBD, 4×, 2 nM)
T1 sequence (P10828 217-461 limits assumed): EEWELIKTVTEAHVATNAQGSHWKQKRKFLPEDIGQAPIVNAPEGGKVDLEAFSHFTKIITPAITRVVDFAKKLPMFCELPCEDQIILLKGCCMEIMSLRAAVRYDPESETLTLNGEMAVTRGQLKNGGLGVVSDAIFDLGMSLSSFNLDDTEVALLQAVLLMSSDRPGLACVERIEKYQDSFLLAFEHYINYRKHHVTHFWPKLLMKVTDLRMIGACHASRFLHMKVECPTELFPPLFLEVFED
Experimental: as §1, §2, §3, §4

Sequence of TRα LBD (P10827 163-410 isoform P10827-2 limits assumed, other chains not shown): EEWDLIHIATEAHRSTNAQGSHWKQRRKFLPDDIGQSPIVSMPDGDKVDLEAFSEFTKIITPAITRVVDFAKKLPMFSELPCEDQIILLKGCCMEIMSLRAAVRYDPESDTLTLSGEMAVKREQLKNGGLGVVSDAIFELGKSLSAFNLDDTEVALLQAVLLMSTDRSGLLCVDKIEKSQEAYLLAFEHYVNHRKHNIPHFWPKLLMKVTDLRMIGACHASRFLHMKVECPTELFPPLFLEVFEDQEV

pEC50 [1] | pEC50 [2] | Relative Selectivity TR-α/TR-β [2] | Compound
8.17 | 7.76 | 0.3915 | Cc1cc(OCC(=O)NS(C)(=O)=O)cc(C)c1Cc1ccc(O)c(C(C)C)c1 [Compound I1, 2-(4-(4-hydroxy-3-isopropylbenzyl)-3,5-dimethylphenoxy)-N-(methylsulfonyl)acetamide]
8.13 | 7.79 | 0.4560 | Cc1cc(OCc2cc(O)no2)cc(C)c1Cc1ccc(O)c(C(C)C)c1 [Compound I2, 5-((4-(4-hydroxy-3-isopropylbenzyl)-3,5-dimethylphenoxy)methyl) isoxazol-3-ol]
< 5.00 | < 5.00 |  | CC(C)c1cc(Oc2ccc(-n3nc(C#N)c(=O)[nH]c3=O)cc2Cl)cnc1O [Compound I5, 2-(3-chloro-4-((5-isopropyl-6-oxo-1,6-dihydropyridin-3-yl)oxy)phenyl)-3,5-dioxo-2,3,4,5-tetrahydro-1,2,4-triazine-6-carbonitrile]
< 5.00 | 5.70 | >5.05 | Cc1cc(-n2nc(C#N)c(=O)[nH]c2=O)cc(C)c1Oc1cnc(O)c(C(C)C)c1 [Compound I6, 2-(4-((5-isopropyl-6-oxo-1,6-dihydropyridin-3-yl)oxy)-3,5-dimethylphenyl)-3,5-dioxo-2,3,4,5-tetrahydro-1,2,4-triazine-6-carbonitrile]
< 5.00 | < 5.00 |  | CC(C)c1cc(Oc2c(F)cc(-n3nc(C#N)c(=O)[nH]c3=O)cc2F)c[nH]c1=O [Compound I7, 2-(3,5-difluoro-4-((5-isopropyl-6-oxo-1,6-dihydropyridin-3-yl)oxy)phenyl)-3,5-dioxo-2,3,4,5-tetrahydro-1,2,4-triazine-6-carbonitrile]
< 5.00 | 5.54 | >3.46 | Cc1c[nH]c2ncc(Oc3c(Cl)cc(-n4nc(C#N)c(=O)[nH]c4=O)cc3Cl)cc12 [Compound I8, 2-(3,5-dichloro-4-((3-methyl-1H-pyrrolo[2,3-b]pyridin-5-yl)oxy)phenyl)-3,5-dioxo-2,3,4,5-tetrahydro-1,2,4-triazine-6-carbonitrile]
< 5.00 | < 5.00 |  | N#Cc1nn(-c2cc(Cl)c(Oc3cnc4[nH]ccc4c3)c(Cl)c2)c(=O)[nH]c1=O [Compound I9, 2-(4-((1H-pyrrolo[2,3-b]pyridin-5-yl)oxy)-3,5-dichlorophenyl)-3,5-dioxo-2,3,4,5-tetrahydr o-1,2,4-triazine-6-carbonitrile]
< 5.00 | 6.12 |  | N#Cc1nn(-c2cc(Cl)c(Oc3cnc(O)c(C4CC4)c3)c(Cl)c2)c(=O)[nH]c1=O [Compound I11, 2-(3,5-dichloro-4-((5-cyclopropyl-6-oxo-1,6-dihydropyridin-3-yl)oxy)phenyl)-3,5-dioxo-2,3,4,5-tetrahydro-1,2,4-triazine-6-carbonitrile]
4.91 | 5.58 | 4.67 | N#Cc1nn(-c2cc(Cl)c(Oc3ccc4[nH]cnc4c3)c(Cl)c2)c(=O)[nH]c1=O [Compound I13, 2-(4-((1H-benzo[d]imidazol-5-yl)oxy)-3,5-dichlorophenyl)-3,5-dioxo-2,3,4,5-tetrahydro-1,2,4-triazine-6-carbonitrile]
6.76 | 7.34 | 3.70 | Cn1c(=O)[nH]c2ccc(Oc3c(Cl)cc(-n4nc(C#N)c(=O)[nH]c4=O)cc3Cl)cc21 [Compound I14, 2-(3,5-dichloro-4-((3-methyl-2-oxo-2,3-dihydro-1H-benzo[d]imidazol-5-yl)oxy)phenyl)-3,5-dioxo-2,3,4,5-tetrahydro-1,2,4-triazine-6-carbonitrile]
5.75 | 6.07 | 2.09 | N#Cc1nn(-c2cc(Cl)c(Oc3ccc4[nH]c(=O)[nH]c4c3)c(Cl)c2)c(=O)[nH]c1=O [Compound I15, 2-(3,5-dichloro-4-((2-oxo-2,3-dihydro-1H-benzo[d]imidazol-5-yl)oxy)phenyl)-3,5-dioxo-2,3,4,5-tetrahydro-1,2,4-triazine-6-carbonitrile]
6.27 | 6.90 | 4.25 | N#Cc1nn(-c2cc(Cl)c(Oc3ccc4[nH]ccc4c3)c(Cl)c2)c(=O)[nH]c1=O [Compound I16, 2-(4-((1H-indol-5-yl)oxy)-3,5-dichlorophenyl)-3,5-dioxo-2,3,4,5-tetrahydro-1,2,4-triazine-6-carbonitrile]
5.99 | 6.87 | 7.50 | N#Cc1nn(-c2cc(Cl)c(Oc3ccc4cc[nH]c4c3)c(Cl)c2)c(=O)[nH]c1=O [Compound I17, 2-(4-((1H-indol-6-yl)oxy)-3,5-dichlorophenyl)-3,5-dioxo-2,3,4,5-tetrahydro-1,2,4-triazine-6-arbonitrile]
7.62 | 8.22 | 3.83 | CC1(C)C(=O)Nc2ccc(Oc3c(Cl)cc(-n4nc(C#N)c(=O)[nH]c4=O)cc3Cl)cc21 [Compound I19, 2-(3,5-dichloro-4-((3,3-dimethyl-2-oxoindolin-5-yl)oxy)phenyl)-3,5-dioxo-2,3,4,5-tetrahydr 0-1,2,4-triazine-6-carbonitrile]
5.08 | 5.68 | 4.01 | N#Cc1nn(-c2cc(Cl)c(Oc3ccc4[nH]c(=O)oc4c3)c(Cl)c2)c(=O)[nH]c1=O [Compound I20, 2-(3,5-dichloro-4-((2-oxo-2,3-dihydrobenzo[d]oxazol-6-yl)oxy)phenyl)-3,5-dioxo-2,3,4,5-tetrahydro-1,2,4-triazine-6-carbonitrile]
5.98 | 7.07 | 12.11 | Cc1c[nH]c2ccc(Cc3c(Cl)cc(-n4nc(C#N)c(=O)[nH]c4=O)cc3Cl)cc12 [Compound I21, 2-(3,5-dichloro-4-((3-methyl-1H-indol-5-yl)methyl)phenyl)-3,5-dioxo-2,3,4,5-tetrahydro-1,2,4-triazine-6-carbonitrile]
< 4.00 | 6.56 | 366 | CC(=O)OCn1cc(Oc2c(Cl)cc(-n3nc(C#N)c(=O)[nH]c3=O)cc2Cl)cc(C(C)C)c1=O [Compound I24, (5-(2,6-dichloro-4-(6-cyano-3,5-dioxo-4,5-dihydro-1,2,4-triazin-2 (3H)-yl)phenoxy)-3-isopropyl-2-oxopyridin-1 (2H)-yl)methyl acetate]
5.19 | 5.64 | 2.83 | CC(C)c1nc(Oc2c(Cl)cc(-n3nc(C#N)c(=O)[nH]c3=O)cc2Cl)c[nH]c1=O [Compound I27, 2-(3,5-dichloro-4-((6-isopropyl-5-oxo-4,5-dihydropyrazin-2-yl)oxy)phenyl)-3,5-dioxo-2,3,4,5-tetrahydro-1,2,4-triazine-6-carbonitrile]
< 4.00 | < 5.00 |  | CC(C)n1cc(Oc2c(Cl)cc(-n3nc(C#N)c(=O)[nH]c3=O)cc2Cl)c(=O)[nH]c1=O [Compound I28, 2-(3,5-dichloro-4-((1-isopropyl-2,4-dioxo-1,2,3,4-tetrahydropyrimidin-5-yl)oxy)phenyl)-3,5-dioxo-2,3,4,5-tetrahydro-1,2,4-triazine-6-carbonitrile]
5.28 | 5.19 | 0.82 | CC(C)c1cncn(Cc2c(Cl)cc(-n3nc(C#N)c(=O)[nH]c3=O)cc2Cl)c1=O [Compound I29, 2-(3,5-dichloro-4-((5-isopropyl-6-oxopyrimidin-1 (6H)-yl)methyl)phenyl)-3,5-dioxo-2,3,4,5-tetrahydro-1,2,4-triazine-6-carbonitrile]
< 4.00 | < 5.00 |  | CC(C)c1cn(Cc2c(Cl)cc(-n3nc(C#N)c(=O)[nH]c3=O)cc2Cl)cnc1=O [Compound I30, 2-(3,5-dichloro-4-((5-isopropyl-4-oxopyrimidin-1 (4H)-yl)methyl)phenyl)-3,5-dioxo-2,3,4,5-tetrahydro-1,2,4-triazine-6-carbonitrile]
< 4.00 | < 5.00 |  | CC(C)c1cn(Cc2c(Cl)cc(-n3nc(C#N)c(=O)[nH]c3=O)cc2Cl)c(=O)[nH]c1=O [Compound I31, 2-(3,5-dichloro-4-((5-isopropyl-2,4-dioxo-3,4-dihydropyrimidin-1(2H)-yl)methyl)phenyl)-3,5-dioxo-2,3,4,5-tetrahydro-1,2,4-triazine-6-carbonitrile]
